Results: patent publication US20240139277A1, “DRUG CONTAINING ACTIVE SULFUR COMPOUND AS ITS MAIN COMPONENT” (priority 2020, published 2024)
“Also recorded” adds a separate entry of the source.

How the values were obtained:
[1] = system: novel coronavirus (SARS-CoV-2); details: reported in NPL 2 and NPL 3; cited from earlier work
main protease (3CLpro) [2] = target: T1, main protease (3CLpro) (Severe acute respiratory syndrome coronavirus 2, UniProt P0DTC1); details: reported in literature; cited from earlier work
[3] = target: T2, papain-like protease (PLpro) (Severe acute respiratory syndrome coronavirus 2, UniProt P0DTC1); details: reported in literature; cited from earlier work
[4] = system: porcine pancreas elastase (PPE) induced emphysema models; experiment: elastase-induced COPD / emphysema model; assay type: in vivo, CARS2-deficient B6 mice
Experimental: FIG. 4 is an example indicating the therapeutic effect of the GSSSG on elastase-induced COPD; and airway administration of GSSSG (50 μL, 1 mM) to porcine pancreas elastase (PPE) induced emphysema models of CARS2-deficient B6 mice^*1 was performed three times, that is, six hours before, two days later, and four days later, and an inflammatory cell count in a bronchial alveolar lavage fluid (BALF) five days after the PPE administration was measured and emphysema lesions were analyzed by using CT. The inflammatory cell count was measured in the same manner as in the example of FIG. 3. […] 2017.

bronchial asthma model = experiment: bronchial asthma model; assay type: in vivo; details: mice
pulmonary fibrosis model = experiment: pulmonary fibrosis model; assay type: in vivo; details: mice
main protease (3CLpro) [5] = target: T1, main protease (3CLpro); experiment: SARS-CoV-2 protease inhibition test, main protease; assay type: biochemical; details: 0.3 mM, 37 degrees Celsius, 15 minutes, MCA fluorogenic substrate, compared to control (GSSSG(−)); FIG. 5
[6] = system: SARS-CoV-2 JPN/TY/WK-521 strain; experiment: anti-SARS-CoV-2 action test in VeroE6/TMPRSS2 cells, quantitative PCR; assay type: cell-based; details: GSSSG 10 μM, 100 μM, 300 μM vs no GSSSG; MOI 0.01; FIG. 6
[7] = system: influenza virus PR8 strain (A/PR/8/34 (H1N1)); experiment: anti-influenza effect in mice (influenza A virus pneumonia); assay type: in vivo, B6 mice; details: nasal administration 50 μL, 1 mM, six hours before virus inoculation; vs PBS group; FIG. 3
Experimental: An influenza virus PR8 strain (A/PR/8/34 (H1N1), Akaike T. et al, Journal of Infectious Diseases, 170, 1023-1026, 1994) (2000 pfu/ml (PBS)) was administered to each of a plurality of B6 mice (ten 8-week-old mice for each group). This administration was performed by intratracheal administration of a virus solution (PBS 40 μL) under anesthesia. Furthermore, nasal administration of GSSSG (50 μL,1 mM) was performed under anesthesia six hours before the virus inoculation and then a survival rate of the mice, their lung damage (14 days after infection), and various kinds of inflammatory cell counts (three days after infection) were measured chronologically and analyzed. A group to which the GSSSG was administered was compared with a control group (PBS-administered group/no GSSG administered) concerning the survival rate, whether there is any lung damage or not, and the various kinds of inflammatory cell counts. Regarding the lung damage, pneumonia images were evaluated by means of HE staining. Regarding the measurement of the inflammatory cell counts, bronchoalveolar lavage (BAL) was performed by using PBS and the number of cells in BAL and cytokine were analyzed.

[8] = target: T2, papain-like protease (PLpro); experiment: SARS-CoV-2 protease inhibition test, papain-like protease; assay type: biochemical; details: 0.3 mM, 37 degrees Celsius, 15 minutes, MCA fluorogenic substrate, compared to control (GSSSG(−)); FIG. 5

Compound	proliferation suppression effect on SARS-CoV-2 [1]	inhibitory activity on 3CLpro as reported in NPL (main protease (3CLpro) [2])	inhibitory activity on PLpro as reported in NPL [3]	inflammatory cell count in bronchial alveolar lavage fluid (BALF) ([4]; airway administration 50 μL, 1 mM, three times, five days after PPE administration, vs GSSSG(−), FIG. 4)	emphysema lesions by CT ([4]; airway administration 50 μL, 1 mM, three times, vs GSSSG(−), FIG. 4)	therapeutic effect in COPD model ([4]; mice)	therapeutic effect in bronchial asthma model (bronchial asthma model)	therapeutic effect in pulmonary fibrosis model (pulmonary fibrosis model)	inhibitory activity on protease activity (3CLpro) (main protease (3CLpro) [5])	RNA viral load [6]	effect on influenza A virus pneumonia [7]	inhibitory activity on protease activity (PLpro) [8]
O=c1c2ccccc2[se]n1-c1ccccc1 [Ebselen, 2-Phenyl-1,2-benzoisoselenazol-3(2H)-one]	conspicuous proliferation suppression effect	strong inhibitory activity	strong inhibitory activity	–	–	–	–	–	–	–	–	–
N[C@@H](CCC(=O)N[C@@H](CSSSC[C@H](NC(=O)CC[C@H](N)C(=O)O)C(=O)NCC(=O)O)C(=O)NCC(=O)O)C(=O)O [GSSSG, glutathione trisulfide]	–	–	–	small as compared to that of the no GSSSG-administered group	remission of the emphysema has been achieved	therapeutic effect of the GSSSG was also confirmed; also recorded: alleviates respiratory tract and lung damage and pulmonary fibrosis	therapeutic effect of the GSSSG was also confirmed; also recorded: alleviates respiratory tract and lung damage and pulmonary fibrosis	therapeutic effect of the GSSSG was also confirmed; also recorded: alleviates respiratory tract and lung damage and pulmonary fibrosis	same level of strong inhibitory activity	RNA viral load decreases along with an increase in the dosage	preventive and therapeutic effects; also recorded: improving severe pneumonia	same level of strong inhibitory activity
